Patent publication US12404291B2, “Antimicrobial agent” (priority 2019, dated 2025)
Values after ≈ are worked out from the molar mass of the structure shown.

Experiments:
[1] = test system: HPRT; experiment: HPRT forward mutation assay; assay type: cell-based; settings: concentrations above the compounds MIC's
Excerpt: It is therefore confirmed that the compounds are non-mutagenic to mammalian DNA.

[2] = test system: E. faecalis pathogenic (V583); experiment: MIC and MBC determination; assay type: cell-based, Enterococcus faecalis
Description: (§1) The bioactivity of these compounds was investigated with respect to the wild type K12-derivative MG1655 and uropathogenic multidrug resistant EC958 ST131 strains of E. coli. Another gram-positive bacteria, ESKAPE bacteria—the pathogenic gastrointestinal strain of Enterococcus faecalis, V583 (ATCC700802)—which is a major opportunistic pathogen (and a leading cause of urinary tract infections) was also tested with respect to the compounds. The minimum inhibitory concentration, MIC, of the four complexes was obtained in both glucose defined minimal media (GDMM) and nutrient rich Mueller-Hinton-II (MH-II) (FIG. 7).
(§2) The same parameters and conditions used above to determine MIC and MBC values with respect to compounds 1^4+ to 4^4+ were employed in order to test the MIC and MBC values of complexes 1^2+ to 4^2+.
(§3) The MIC and MBC values were determined as above.

[3] = test system: E. coli wild type (MG1655); experiment: MIC and MBC determination; assay type: cell-based
Description: as §1, §2, §3

[4] = physchem; assay type: physicochemical; settings: pH 7.4, aqueous buffer, kinetic from dmso stock
Description: Table 12 illustrates the kinetic solubility of complexes 4^2+ and 4^4+ were tested and compared to a soluble positive control drug (Nicardipine). Both compounds passed the DMPK analysis with an optimal solubility and kinetic stability.

[5] = test system: A. baumannii biofilm; experiment: Biofilm activity profile (MBEC); assay type: cell-based; settings: Gram-negative biofilm
[6] = test system: P. aeruginosa biofilm; experiment: Biofilm activity profile (MBEC); assay type: cell-based; settings: Gram-negative biofilm
[7] = test system: K. pneumonia biofilm; experiment: Biofilm activity profile (MBEC); assay type: cell-based; settings: Gram-negative biofilm

## N.N.[Cl][Pt][Cl] [Cisplatin]
[1]
  Mutations: 65.5 per 1 × 10^5 viable cells

## CC1(C)S[C@@H]2[C@H](NC(=O)[C@H](N)c3ccccc3)C(=O)N2[C@H]1C(=O)O [ampicillin]
[2]; Enterococcus faecalis, MH-II
  MIC: 0.5 µM (≈ 0.175 µg/mL)
[2]; Enterococcus faecalis, GDMM
  MBC: 6.3 µM (≈ 2.2 µg/mL)
  MIC: 1 µM (≈ 0.349 µg/mL)
[2]; MH-II
  MBC: 6.3 µM (≈ 2.2 µg/mL)
[3]; Escherichia coli, MG1655, GDMM
  MBC: 11.4 µM (≈ 3.98 µg/mL)
[3]; MH-II
  MBC: 11.4 µM (≈ 3.98 µg/mL)

## COC(=O)C1=C(C)NC(C)=C(C(=O)OCCN(C)Cc2ccccc2)C1c1cccc([N+](=O)[O-])c1 (stereo not drawn) [Nicardipine]
[4]
  solubility: 20.8 µM (≈ 10 µg/mL)
[4]; Solubility
  solubility: 20.8 µM (≈ 9.97 µg/mL)

## Gentamicin
[5]
  Minimum Biofilm Eradication Concentration (MBEC): 9 µM
[6]
  Minimum Biofilm Eradication Concentration (MBEC): 18 µM
[7]
  Minimum Biofilm Eradication Concentration (MBEC): 18 µM
